# Reference: patent US6897219B2, “Heteroaryl diazacycloalkanes, their preparation and use” (priority 1997, dated 2005)
# Counter-ions that a name gives are not always drawn.
row,melting point,SMILES
1,163.1 to 164.4 °C,CN1CCCN(c2cccc([N+](=O)[O-])c2)CC1
2,116.5 to 117 °C,CN1CCN(c2cnc3ccccc3c2)CC1
3,87.7 to 88.5 °C,c1ccc2ncc(N3CCNCC3)cc2c1
4,165 to 167 °C,Clc1ccc(N2CCCNCC2)cn1
5,136.4 to 138.2 °C,C=COc1cncc(N2CCN(C)CC2)c1 (as salt: fumaric acid salt)
6,149.5 to 151.8 °C,CCCCCCOc1cncc(N2CCCNCC2)c1 (as salt: fumaric acid salt)
7,154 to 156 °C,O=S(=O)(Oc1cncc(N2CCCNCC2)c1)C(F)(F)F (as salt: fumaric acid salt)
8,166 to 168 °C,CC1CCN(c2ccc(Cl)nn2)CCCN1 (stereo not shown) (as salt: fumaric acid salt)
9,163.3 to 164.5 °C,c1ncc(N2CCCNCC2)cc1OCC1CCCCC1 (as salt: fumaric acid salt)
10,172.5 to 174 °C,C#Cc1cncc(N2CCCNCC2)c1 (as salt: fumaric acid salt)
11,139.3 to 140.4 °C,CCOCCOc1cncc(N2CCCNCC2)c1 (as salt: fumaric acid salt)
12,163.1 to 164.4 °C,O=[N+]([O-])c1cccc(N2CCCNCC2)c1 (as salt: fumaric acid salt)
13,155.5 to 156.7 °C,CCCCCOc1cncc(N2CCCNCC2)c1 (as salt: fumaric acid salt)
14,165.4 to 167.7 °C,Nc1cccc(N2CCCNCC2)c1 (as salt: fumaric acid salt)
15,132.8 to 136.6 °C,CCCCCCCOc1cncc(N2CCCNCC2)c1 (as salt: fumaric acid salt)
16,164.1 to 165.7 °C,COc1cccc(N2CCCNCC2)c1 (as salt: fumaric acid salt)
17,165 °C (dec.),Oc1cccc(N2CCCNCC2)c1 (as salt: fumaric acid salt)
18,174 to 175 °C,c1ccn(-c2cncc(N3CCCNCC3)c2)c1 (as salt: fumaric acid salt)
19,171 to 172 °C,CN1CCCN(c2ccc(Cl)nn2)CC1 (as salt: fumaric acid salt)
20,185 to 186 °C,CN1CCCN(c2ccc(-c3ccccc3)nn2)CC1 (as salt: fumaric acid salt)
21,137.8 to 139.3 °C,CN1CCCN(c2cccnn2)CC1 (as salt: fumaric acid salt)
22,152 to 153 °C,Cc1ccc(N2CCCN(C)CC2)nn1 (as salt: fumaric acid salt)
23,148.4 to 149 °C,c1ccc(CN2CCCN(c3cccnc3)CC2)cc1 (as salt: fumaric acid salt)
24,145.3 to 147.5 °C,CCN1CCCN(c2cccnc2)CC1 (as salt: fumaric acid salt)

row,melting point,SMILES
1,160 to 162 °C,c1cncc(-c2cncc(N3CCCNCC3)c2)c1 (as salt: fumaric acid salt)
2,193 to 195 °C,c1ccc2c(c1)ccn2-c1cncc(N2CCCNCC2)c1 (as salt: fumaric acid salt)
3,187 to 189 °C,c1ccc(-c2ccc(N3CCCNCC3)nn2)cc1 (as salt: fumaric acid salt)
4,127 to 128 °C,COc1ccc(N2CCCNCC2)cn1 (as salt: fumaric acid salt)
5,150 to 152 °C,COc1cc(N2CCCNCC2)cnc1OC (as salt: fumaric acid salt)
6,136.4 to 138.2 °C,C=COc1cncc(N2CCNCC2)c1 (as salt: fumaric acid salt)
7,117 to 118 °C,COc1cnc(Cl)c(N2CCCNCC2)c1 (as salt: fumaric acid salt)
8,150 to 151 °C,CCCCOc1cncc(N2CCCNCC2)c1 (as salt: fumaric acid salt)
9,143 to 144 °C,C=COc1cncc(N2CCCNCC2)c1 (as salt: fumaric acid salt)
10,149 to 151 °C,Cc1cnc(C)c(N2CCCNCC2)n1 (as salt: fumaric acid salt)
11,167.5 to 168.5 °C,c1ccc(-c2cncc(N3CCNCC3)c2)cc1 (as salt: fumaric acid salt)
12,162.5 to 164.5 °C,CCOc1cncc(N2CCCNCCC2)c1 (as salt: fumaric acid salt)
13,148 to 150 °C,c1ncc(N2CCCNCC2)cc1OC1CCCC1 (as salt: fumaric acid salt)
14,150 to 152 °C,CCCOc1cncc(N2CCCNCCC2)c1 (as salt: fumaric acid salt)
15,181.7 to 183.2 °C,CCOc1cc(N2CCCNCC2)cnc1Br (as salt: fumaric acid salt)
16,148.6 to 150.5 °C,c1cc(N2CCCC2)ncc1N1CCCNCC1 (as salt: fumaric acid salt)
17,144.4 to 146.6 °C,Clc1cncc(N2CCCNCC2)c1 (as salt: fumaric acid salt)
18,136.2 to 139.9 °C,Clc1nc2ccccc2nc1N1CCCNCC1 (as salt: fumaric acid salt)
19,136.9 to 139.2 °C,CCCCOc1cncc(N2CCN(C)CC2)c1 (as salt: fumaric acid salt)
20,142 to 144 °C,C=COc1cncc(N2CCCNCCC2)c1 (as salt: fumaric acid salt)
21,139.9 to 142 °C,CC(C)CCOc1cncc(N2CCCNCC2)c1 (as salt: fumaric acid salt)
22,180.7 to 185.4 °C,Brc1cncc(N2CCCNCC2)c1 (as salt: fumaric acid salt)
23,160 to 162 °C,c1ccc2c(N3CCCNCC3)cncc2c1 (as salt: fumaric acid salt)

row,SMILES,melting point
1,"CN1CCN(c2cccnc2)CC1 (as salt: fumaric acid salt) [Compound 1A, 4-Methyl-1-(3-pyridyl)-piperazine]",144.5 to 145.9 °C
2,"c1cncc(N2CCNCC2)c1 (as salt: fumaric acid salt) [Compound 1B, 1-(3-Pyridyl)-piperazine]",161.7 to 164.8 °C
3,"CCOc1cncc(N2CCNCC2)c1 (as salt: fumaric acid salt) [Compound 1D, 1-(5-Ethoxy-3-pyridyl)piperazine]",160 to 161.2 °C
4,"c1cncc(N2CCCNCC2)c1 (as salt: fumaric acid salt) [Compound 1F, 1-(3-Pyridyl)-homopiperazine]",172.1 to 172.9 °C
5,"COc1cncc(N2CCCNCC2)c1 (as salt: fumaric acid salt) [Compound 1H, 1-(5-Methoxy-3-pyridyl)-homopiperazine]",161 to 162 °C
6,"Clc1ccc(N2CCCNCC2)nn1 (as salt: fumaric acid salt) [Compound 1K, 1-(6-Chloro-3-pyridazinyl)-homopiperazine]",165 to 166 °C
7,"COc1cncc(N2CCN(C)C2)c1 (as salt: fumaric acid salt) [Compound 1M, 1-(5-Methoxy-3-pyridyl)-3-methyl-imidazolidine]",139 to 142 °C
8,"CCCCOc1cncc(N2CCNCC2)c1 (as salt: fumaric acid salt) [Compound 2D, 1-(5-Butoxy-3-pyridyl)piperazine]",149.4 to 151.7 °C
9,"CN1CCCN(c2cnc3ccccc3c2)CC1 (as salt: fumaric acid salt) [Compound 2E, 4-Methyl-1-(3-quinolinyl)-homopiperazine]",170 to 171 °C
10,"c1ccc2ncc(N3CCCNCC3)cc2c1 (as salt: fumaric acid salt) [Compound 2F, 1-(3-Quinolinyl)-homopiperazine]",181 to 182 °C
11,"c1ccc(-c2cncc(N3CCCNCC3)c2)cc1 (as salt: fumaric acid salt) [Compound 2H, 1-(5-Phenyl-3-pyridyl)-homopiperazine]",185 to 186 °C
12,"c1ccc2nc(N3CCCNCC3)cnc2c1 (as salt: fumaric acid salt) [Compound 2L, 1-(2-Quinoxalinyl)-homopiperazine]",177 to 180 °C
13,"COc1cncc(N2CCCN(C)C2)c1 (as salt: fumaric acid salt) [Compound 2M, 1-(5-Methoxy-3-pyridyl)-3-methyl-1,3-diazacyclohexane]",149 to 151 °C
14,"COc1cncc(N2CCNCC2)c1 (as salt: fumaric acid salt) [Compound 3B, 1-(5-Methoxy-3-pyridyl)-piperazine]",168.5 to 170.5 °C
15,"COc1cncc(N2CCCN(C)CC2)c1 (as salt: fumaric acid salt) [Compound 3E, 1-(5-Methoxy-3-pyridyl)-4-methyl-homopiperazine]",145 to 147 °C
16,"CCOc1cncc(N2CCCNCC2)c1 (as salt: fumaric acid salt) [Compound 3H, 1-(5-Ethoxy-3-pyridyl)-homopiperazine]",157.5 to 159 °C
17,"Clc1cncc(N2CCCNCC2)n1 (as salt: fumaric acid salt) [Compound 3K, 1-(6-Chloro-2-pyrazinyl)-homopiperazine]",180 to 181 °C
18,"Clc1cncc(N2CCNCC2)c1 (as salt: fumaric acid salt) [Compound 4B, 1-(5-Chloro-3-pyridyl)-piperazine]",195 to 196 °C
19,"CCOc1cncc(N2CCCN(C)CC2)c1 (as salt: fumaric acid salt) [Compound 4E, 1-(5-Ethoxy-3-pyridyl)-4-methyl-homopiperazine]",150 to 152 °C
20,"CN1CCN(c2cncc(Cl)c2)CC1 (as salt: fumaric acid salt) [Compound 5A, 1-(5-Chloro-3-pyridyl)-4-Methyl-piperazine]",162 to 163 °C
21,"CN1CCCN(c2cncc(-c3ccccc3)c2)CC1 (as salt: fumaric acid salt) [Compound 5E, 4-Methyl-1-(5-phenyl-3-pyridyl)-homopiperazine]",161 to 162 °C
22,"COc1cc(N2CCCNCC2)cnc1Cl (as salt: fumaric acid salt) [Compound 5F, 1-(6-Chloro-5-methoxy-3-pyridyl)-homopiperazine]",196 to 197 °C
23,"COCCOc1cncc(N2CCCNCC2)c1 (as salt: fumaric acid salt) [Compound 5H, 1-(5-Methoxyethoxy-3-pyridyl)-homopiperazine]",126 to 127 °C
